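In this assay, cells in 96-well plates receive the compound at five concentrations for 48 hours. Endpoints are linearly interpolated between the surrounding concentrations. GI50 = concentration required for 50% inhibition of growth. The concentration for full growth arrest is given as TGI.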
Columns and labels:
Experiment in all cases: inhibition of tumour cell growth, NCI panel, 48 h
M14 melanoma = system: M14 melanoma
SK-MEL-28 melanoma = system: SK-MEL-28 melanoma
UACC-257 melanoma = system: UACC-257 melanoma
K-562 leukemia = system: K-562 leukemia
COLO 205 colon = system: COLO 205 colon
A549 NSCLC = system: A549 NSCLC
NCI-H522 lung = system: NCI-H522 lung
KM12 colon = system: KM12 colon
SW-620 colon = system: SW-620 colon
ACHN renal = system: ACHN renal

Structure (SMILES)	TGI (M14 melanoma)	TGI (SK-MEL-28 melanoma)	TGI (UACC-257 melanoma)	TGI (K-562 leukemia)	TGI (COLO 205 colon)	TGI (A549 NSCLC)	TGI (NCI-H522 lung)	TGI (KM12 colon)	TGI (SW-620 colon)	TGI (ACHN renal)	GI50 (NCI-H522 lung)	GI50 (SW-620 colon)	GI50 (ACHN renal)	GI50 (SK-MEL-28 melanoma)	GI50 (UACC-257 melanoma)	GI50 (K-562 leukemia)	GI50 (COLO 205 colon)	GI50 (A549 NSCLC)	GI50 (KM12 colon)
COC(=O)[C@@H]1c2c(oc3cc(CO)cc(O)c3c2=O)C=C[C@H]1O	19.8 µM	18.1 µM	21.5 µM	> 100 µM	29 µM	34.1 µM	3.64 µM	14.8 µM	10.4 µM										
Cc1c2cc[n+](Cc3ccc(I)cc3)cc2c(C)c2c1[nH]c1ccccc12		11.7 µM	2.09 µM	10.7 µM	6.16 µM	> 25 µM	5.59 µM	1.83 µM	> 25 µM										
CNC(=O)OCc1cnc([N+](=O)[O-])n1C		> 100 µM	> 100 µM	> 100 µM	> 100 µM	> 100 µM	> 100 µM	> 100 µM	> 100 µM	> 100 µM									
O=C(C[N+]12CN3CN(CN(C3)C1)C2)c1ccc(-c2ccccc2)cc1	49.5 µM	37 µM	29.8 µM	33.7 µM		> 100 µM	38.2 µM	90.3 µM	30 µM	52.9 µM									
CC1OC(OC2C(O)CC(OC3C(O)CC(OC4CCC5(C)C(CCC6C5CCC5(C)C(C7=CC(=O)OC7)C(O)CC65O)C4)OC3C)OC2C)CC(O)C1O (configuration not stated)	1.99 µM	5.86 µM	2.07 µM	> 100 µM	0.844 µM	0.0706 µM	0.157 µM			0.473 µM									
CC(=O)Oc1ccc2cc(Oc3cc(Cl)c(Cl)cc3Cl)c(=O)oc2c1	35.2 µM	59.6 µM	50.6 µM	25.9 µM		40.2 µM	34.6 µM	25.6 µM	28 µM	50.5 µM									
C[C@]12CC[C@H]3[C@@H](CC=C4C[C@@H](O)CC[C@@]43C)[C@@H]1C/C(=C\c1cccnc1)[C@@H]2O	> 100 µM	> 100 µM	> 100 µM		> 100 µM	> 100 µM	42.5 µM	> 100 µM	> 100 µM	32.2 µM									
Nc1nc(SCc2ccccc2Cl)c2ncn(C3OC(CO)C(O)C3O)c2n1 (configuration not stated)	> 100 µM	> 100 µM		> 100 µM	> 100 µM	> 100 µM	> 100 µM	> 100 µM	> 100 µM	> 100 µM									
COc1cc2c(c(OC)c1OC)C(=O)c1c(O)cc(C)c(OC)c1C2=O	> 100 µM	> 100 µM	> 100 µM		> 100 µM	> 100 µM	> 100 µM	> 100 µM	> 100 µM	> 100 µM									
CCCCCCCCCCCC1N=C(N)N=C(N)N1c1cccc(Br)c1 (configuration not stated)							2.95 µM		2.26 µM	7.05 µM	1.51 µM	0.837 µM	2.52 µM						
COc1cccc(NC(=O)CC(=O)NN)c1		> 100 µM	> 100 µM	> 100 µM	> 100 µM	> 100 µM	> 100 µM	> 100 µM	> 100 µM	> 100 µM									
CCOC(=O)C(O)(CC1=NC(C(=O)OC)(C(=O)OC)C(c2cccc(C=O)c2)O1)C(=O)OCC (configuration not stated)	> 100 µM	> 100 µM	> 100 µM	> 100 µM	> 100 µM	> 100 µM		> 100 µM	> 100 µM	> 100 µM									
COC(=O)CN1CCN(c2cccc3c2CCCC3)CC1	> 100 µM		> 100 µM	> 100 µM	> 100 µM	> 100 µM	> 100 µM	> 100 µM	> 100 µM	> 100 µM									
CCOc1ccc2nc(NC(=O)C(=O)C3C(=O)C(CC4C(=O)c5ccccc5C4=O)C(=O)CC3(C)C)sc2c1 (configuration not stated)	> 100 µM	> 100 µM	> 100 µM		> 100 µM	> 100 µM	> 100 µM	> 100 µM	> 100 µM	> 100 µM									
CN(C)C(=O)C(F)(F)C(c1ccccc1Br)C1C(=O)N(C)C(=O)N(C)C1=O (configuration not stated)	> 100 µM	> 100 µM	> 100 µM	> 100 µM	> 100 µM	> 100 µM		> 100 µM	> 100 µM	> 100 µM									
[CH3][Sn]([CH3])([CH3])[S]C(=S)N1CCOCC1		33.6 µM	14.9 µM	5.84 µM	0.432 µM	> 92.7 µM	0.42 µM	11.1 µM	2.42 µM		0.102 µM	0.208 µM		3.49 µM	1.22 µM	0.36 µM	0.0786 µM	1.07 µM	2.11 µM
CC1CC(=O)N(N(C)C)C2(C#N)C(=O)N=C(N)C12C#N (configuration not stated)	> 100 µM		> 100 µM	59.6 µM	> 100 µM	> 100 µM	> 100 µM	> 100 µM	> 100 µM	> 100 µM									
ClC1=NSSC1(Cl)Cl	40.1 µM		> 100 µM	24 µM	30.8 µM	> 100 µM	38.8 µM	> 100 µM	82.3 µM	39.5 µM									
Brc1ccc2[nH]c3c(C4=NCCC4)nccc3c2c1		> 100 µM	> 49.7 µM	> 41.9 µM	> 59.6 µM	> 100 µM	> 100 µM	> 100 µM	> 86.6 µM										
CCOC(=O)C(C)c1nc2cc(F)c(F)cc2[nH]c1=O (configuration not stated)	> 100 µM	> 100 µM	> 100 µM	> 100 µM	> 100 µM	> 100 µM		> 100 µM	> 100 µM	> 100 µM									
NC(Cc1ccccc1)C(=O)OCN1C(=O)C2C3C=CC(C2C1=O)C1C(=O)N(COC(=O)C(N)Cc2ccccc2)C(=O)C31 (configuration not stated)	> 100 µM	> 100 µM	> 100 µM	74.6 µM	> 100 µM	> 100 µM	> 100 µM		77.3 µM	> 100 µM									
CNC(=S)N/N=C/C(C)=N/NC(=S)NC	> 100 µM	> 100 µM			> 100 µM	> 100 µM	> 100 µM	> 100 µM	> 100 µM	> 100 µM									
CSc1c(C(C)=O)c(O)n(-c2ccc(C)cc2)c(=O)c1C#N	> 100 µM	> 100 µM	> 100 µM	> 100 µM	> 100 µM	> 100 µM	> 100 µM	> 100 µM	> 100 µM										

— PubChem BioAssay (NCI)
